Where a name gives a salt, the structure may show the parent alone.
Test system: ileum segments
Assay: Guinea Pig Ileum Coaxial Stimulation
Format: tissue-based
Settings: Cavia porcellus, 5 min; concentration of 3.10^-9 M; five minutes after administration versus before; submaximal electrical stimulation (80% of maximal response); read-out: increase of the amplitude of the twitch response
Experimental: Example 10 : Guinea Pig Ileum Coaxial Stimulation. Dunkin Hartley guinea-pigs of both sexes (body weight ± 500 g) were killed by decapitation. The ileum was removed and cleansed with warmed and oxygenated Krebs-Henseleit solution. Non-terminal, intact ileum segments, 4.5 cm long, of the guinea pig were vertically suspended with a preload of 1 g in 100 ml Krebs-Henseleit solution (37.5°C), gassed with a mixture of 95% O2 and 5% CO2. Transmural excitation was applied over the whole length of the ileum segment by means of two platinum electrodes, the anode threaded through the lumen of the ileum, the cathode in the bathing solution. The preparation was excited with single rectangular […] [1 msec; 0.1 Hz; submaximal response (current leading to 80% of maximal reponse)] from a progammable stimulator. Contractions were measured isometrically. During the stabilization period of 30 min, the strips were repeatedly stretched to a tension of 2g, in order to obtain a steady state tension of lg. Before starting the electrical stimulation, a cumulative dose response curve of acetylcholine was given. The electrical stimulation was started at supramaximal current to determine the maximal amplitude of the twitch responses. When these responses were stable, a submaximal stimulation to obtain 80% of the maximal responses was given until the twitch responses were constant for at least 15 min, whereafter a single dose of the test compound was added to the bath fluid. The amplitude of the twitch response five minutes after the administration of the test compound is compared with the amplitude before the administration of the test compound.

SMILES | activation at 0.003 µM [%]
CCOC(=O)CCCN1CCC(OC(=O)c2cc(Cl)c(N)c3c2OCC3)CC1 [Compound 33, ethyl 4-[[(4-amino-5-chloro-2,3-dihydro-7-benzofuranyl)carbonyl]oxy]-1-piperidinebutanoate] | > 5
COC1CN(CCCC2(C)OCCO2)CCC1OC(=O)c1cc(Cl)c(N)c2c1OCC2 (stereo not shown) [Compound 46] | > 5
CC(=O)CCCN1CCC(OC(=O)c2cc(Cl)c(N)c3c2OCC3)CC1 [Compound 8, 1-(4-oxopentyl)-4-piperidinyl 4-amino-5-chloro-2,3-dihydro-7-benzofurancarboxylate] | > 5
Nc1c(Cl)cc(C(=O)OC2CCN(CCC3CCCO3)CC2)c2c1CCO2 (racemic) [Compound 36, 1-[2-(tetrahydro-2-furanyl)ethyl]-4-piperidinyl 4-amino-5-chloro-2,3-dihydro-7-benzofurancarboxylate] | > 5
Cc1nccnc1NCCN1CCC(OC(=O)c2cc(Cl)c(N)c3c2OCC3)CC1 [Compound 39, 1-[2-[(3-methyl-2-pyrazinyl)amino]ethyl]-4-piperidinyl 4-amino-5-chloro-2,3-dihydro-7-benzofurancarboxylate] | > 5
Nc1c(Cl)cc(C(=O)OC2CCN(CCCn3nc(Cl)ccc3=O)CC2)c2c1CCO2 [Compound 7, 1-[3-(3-chloro-6-oxo-1(6H)-pyridazinyl)propyl]-4-piperidinyl 4-amino-5-chloro-2,3-dihydro-7-benzofurancarboxylate] | > 5
COCCCN1CCC(OC(=O)c2cc(Cl)c(N)c3c2OCC3)CC1 [Compound 15, 1-(3-methoxypropyl)-4-piperidinyl 4-amino-5-chloro-2,3-dihydro-7-benzofuran-carboxylate] | > 5
Nc1c(Cl)cc(C(=O)OC2CCN(CCCC3CCCO3)CC2)c2c1CCO2 (racemic) [Compound 35] | > 5
CC1(CCCN2CCC(OC(=O)c3cc(Cl)c(N)c4c3OCC4)CC2)OCCO1 [Compound 6, 1-[3-(2-methyl-1,3-dioxolan-2-yl)propyl]-4-piperidinyl 4-amino-5-chloro-2,3-dihydro-7-benzofurancarboxylate] | > 5
CC1(C)CCc2c(N)c(Cl)cc(C(=O)OC3CCN(CC4CCCO4)CC3)c2O1 (racemic) [Compound 32, 1-[(tetrahydro-2-furanyl)methyl]-4-piperidinyl 5-amino-6-chloro-3,4-dihydro-2,2-dimethyl-2H-1-benzopyran-8-carboxylate] | > 5
CCn1c(=O)n(CCN2CCC(OC(=O)c3cc(Cl)c(N)c4c3OCC4)CC2)c2ccccc21 [Compound 1] | > 5
Nc1c(Cl)cc(C(=O)OC2CCN(CCOCCO)CC2)c2c1CCO2 [Compound 14, 1-[2-(2-hydroxyethoxy)ethyl]-4-piperidinyl 4-amino-5-chloro-2,3-dihydro-7-benzo-furancarboxylate] | > 5
CCN1CCC(OC(=O)c2cc(Cl)c(N)c3c2OC(C)(C)C3)CC1 [Compound 16] | > 5
Nc1c(Cl)cc(C(=O)OC2CCN(CC3CC3)CC2)c2c1CCO2 [Compound 34] | > 5
COC1CN(CCCn2nc(Cl)ccc2=O)CCC1OC(=O)c1cc(Cl)c(N)c2c1OCC2 (stereo not shown) [Compound 50] | > 5
CC(C)OCCCN1CCC(OC(=O)c2cc(Cl)c(N)c3c2OCC3)CC1 [Compound 4, 1-[3-(1-methylethoxy)propyl]-4-piperidinyl 4-amino-5-chloro-2,3-dihydro-7-benzofurancarboxylate monohydrochloride] | > 5
